Results: the supplement of paper PMC6965134
± gives the standard deviation of the averaged measurements.

Experiment: TIMS collisional cross section (CCS, N2) of the lipid ion; higher = larger ion cross section
Details: ionization mode: negative, one isomer drawn
Procedure: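 Lipid extracts of human plasma (NIST SRM 1950), mouse liver or HeLa cells were separated by nanoflow C18 LC (30 min gradient) and analysed by TIMS-PASEF on a timsTOF Pro. Ion mobility was calibrated with the Agilent tuning mix (negative mode ions) and converted to collisional cross sections (Mason–Schamp, N2).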

[1] = sample type: Human plasma, ion (formula + adduct): [C41H74NO8P-H] 1-
[2] = sample type: Mouse Liver, ion (formula + adduct): [C43H74NO9P-H] 1-
[3] = sample type: Human plasma, ion (formula + adduct): [C43H78NO9P-H] 1-
[4] = sample type: Mouse Liver, ion (formula + adduct): [C43H78NO9P-H] 1-
[5] = sample type: Human plasma, ion (formula + adduct): [C45H78NO9P-H] 1-
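Also: lipids from MTBE extraction, five replicate injections per sample, 100 ms TIMS ramp spanning 0.6–1.95 Vs/cm², lipid identity assigned from PASEF MS/MS spectra.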

In the case of CCCCCCCCCCCCCCCC(=O)OC[C@H](COP(=O)([O-])OCC[N+](C)(C)C)OC(=O)CCCCCCCC(=O)O [Oxidized PC 16:0_9:0@], the “TIMS collisional cross section” value (sample type: Mouse Liver, ion (formula + adduct): [C33H64NO10P-CH3] 1-) is reported as 255.5 Å².

In the case of CCCCCCCCCCCCCCCC(=O)OC[C@H](COP(=O)([O-])OCC[N+](C)(C)C)OC(=O)CCCCCCCC=O [Oxidized PC 16:0_9:0@], the “TIMS collisional cross section” value (sample type: Human plasma, ion (formula + adduct): [C33H64NO9P+HCOO] 1-) is reported as 267.18 ± 0.29 Å², the “TIMS collisional cross section” value (sample type: Human plasma, ion (formula + adduct): [C33H64NO9P-CH3] 1-) is reported as 253.8 Å² and the “TIMS collisional cross section” value (sample type: Mouse Liver, ion (formula + adduct): [C33H64NO9P+HCOO] 1-) is reported as 267.1 ± 0.42 Å².

In the case of CCCCC/C=C\C[C@H](O)/C=C/C=C\C/C=C\CCCC(=O)O[C@H](COC(=O)CCCCCCCCCCCCCCC)COP(=O)([O-])OCC[N+](C)(C)C [Oxidized PC 16:0_20:4], the “TIMS collisional cross section” value (sample type: Human plasma, ion (formula + adduct): [C44H80NO9P+HCOO] 1-) is reported as 296.77 ± 1.3 Å² and the “TIMS collisional cross section” value (sample type: Mouse Liver, ion (formula + adduct): [C44H80NO9P+HCOO] 1-) is reported as 295.67 ± 1.9 Å².

With CCCCC/C=C\C[C@H](O)/C=C/C=C\C/C=C\CCCC(=O)O[C@H](COC(=O)CCCCCCCCCCCCCCCCC)COP(=O)([O-])OCC[N+](C)(C)C [Oxidized PC 18:0_20:4] the “TIMS collisional cross section” value (sample type: Human plasma, ion (formula + adduct): [C46H84NO9P+HCOO] 1-) was 302.75 ± 1.5 Å² and the “TIMS collisional cross section” value (sample type: Mouse Liver, ion (formula + adduct): [C46H84NO9P+HCOO] 1-) was 302.3 Å².

In the case of CCCCC/C=C\C[C@H](O)/C=C/C=C\C/C=C\CCCC(=O)O[C@H](CO/C=C\CCCCCCCCCCCCCC)COP(=O)(O)OCCN [Oxidized PE 16:0@_20:4], the “TIMS collisional cross section” value (sample type: Human plasma, ion (formula + adduct): [C41H74NO8P+OAcO] 1-) is reported as 291.6 Å² and the “TIMS collisional cross section” value [1] is reported as 274.77 ± 1.5 Å².

For CC/C=C\C/C=C\CC(O)/C=C/C=C\C/C=C\C/C=C\CCC(=O)O[C@H](CO/C=C\CCCCCCCCCCCCCC)COP(=O)(O)OCCN (stereo partly drawn) [Oxidized PE 16:0@_22:6], the “TIMS collisional cross section” value (sample type: Human plasma, ion (formula + adduct): [C43H74NO8P-H] 1-) was 277.4 Å².

With CC/C=C\C/C=C\CC(O)/C=C/C=C\C/C=C\C/C=C\CCC(=O)O[C@H](COC(=O)CCCCCCCCCCCCCCC)COP(=O)(O)OCCN (stereo partly drawn) [Oxidized PE 16:0@_22:6] the “TIMS collisional cross section” value [2] was 279 Å².

In the case of CC/C=C\C/C=C\CC(O)/C=C/C=C\C/C=C\C/C=C\CCC(=O)O[C@H](COC(=O)CCCCCCCCCCCCCCC)COP(=O)(O)OCCN (stereo partly drawn) [Oxidized PE 16:0_22:6@], the “TIMS collisional cross section” value [2] is reported as 290.6 Å².

For CC/C=C\C/C=C\CC(O)/C=C/C=C\C/C=C\C/C=C\CCC(=O)O[C@H](COC(=O)CCCCCCCCCCCCCCC)COP(=O)(O)OCCN (stereo partly drawn) [Oxidized PE 16:0_22:6], the “TIMS collisional cross section” value (sample type: Human plasma, ion (formula + adduct): [C43H74NO9P-H] 1-) was 277.85 ± 0.78 Å² and the “TIMS collisional cross section” value [2] was 277.43 ± 0.71 Å².

In the case of CCCCC/C=C\C[C@H](O)/C=C/C=C\C/C=C\CCCC(=O)O[C@H](CO/C=C\CCCCCCCCCCCCCCCC)COP(=O)(O)OCCN [Oxidized PE 18:0@_20:4], the “TIMS collisional cross section” value (sample type: Human plasma, ion (formula + adduct): [C43H78NO8P-H] 1-) is reported as 280.43 ± 1.2 Å².

In the case of CCCCC/C=C\C[C@H](O)/C=C/C=C\C/C=C\CCCC(=O)O[C@H](COC(=O)CCCCCCCCCCCCCCCCC)COP(=O)(O)OCCN [Oxidized PE 18:0@_20:4], the “TIMS collisional cross section” value [3] is reported as 298.2 Å² and the “TIMS collisional cross section” value [4] is reported as 281.9 Å².

In the case of CC/C=C\C/C=C\CC(O)/C=C/C=C\C/C=C\C/C=C\CCC(=O)O[C@H](COC(=O)CCCCCCCCCCCCCCCCC)COP(=O)(O)OCCN (stereo partly drawn) [Oxidized PE 18:0@_22:6], the “TIMS collisional cross section” value [5] is reported as 285.8 Å².

With CCCCC/C=C\C[C@H](O)/C=C/C=C\C/C=C\CCCC(=O)O[C@H](COC(=O)CCCCCCCCCCCCCCCCC)COP(=O)(O)OCCN [Oxidized PE 18:0_20:4] the “TIMS collisional cross section” value [3] was 282.5 Å² and the “TIMS collisional cross section” value [4] was 279 Å².

With CC/C=C\C/C=C\CC(O)/C=C/C=C\C/C=C\C/C=C\CCC(=O)O[C@H](COC(=O)CCCCCCCCCCCCCCCCC)COP(=O)(O)OCCN (stereo partly drawn) [Oxidized PE 18:0_22:6@] the “TIMS collisional cross section” value [5] was 287 Å².

For CC/C=C\C/C=C\CC(O)/C=C/C=C\C/C=C\C/C=C\CCC(=O)O[C@H](COC(=O)CCCCCCCCCCCCCCCCC)COP(=O)(O)OCCN (stereo partly drawn) [Oxidized PE 18:0_22:6], the “TIMS collisional cross section” value [5] was 284.6 Å².

With CCCCC/C=C\C[C@H](O)/C=C/C=C\C/C=C\CCCC(=O)O[C@H](CO/C=C\CCCCCC/C=C\CCCCCCCC)COP(=O)(O)OCCN [Oxidized PE 18:1@_20:4] the “TIMS collisional cross section” value (sample type: Human plasma, ion (formula + adduct): [C43H76NO8P-H] 1-) was 279.7 Å².

With CCCCCCCCCCCCCCCCCCCCC(=O)O[C@H](COC(=O)CCCCCCCCCCCCCCC)COP(=O)(O)O [PA 16:0_21:0@] the “TIMS collisional cross section” value (sample type: Mouse Liver, ion (formula + adduct): [C40H79O8P+Cl] 1-) was 276.3 Å².

In the case of CCCCCCCCCCCCCCCCCCCCCC(=O)O[C@H](COC(=O)CCCCCCCCCCCCCCCC)COP(=O)(O)O [PA 17:0_22:0@], the “TIMS collisional cross section” value (sample type: Human plasma, ion (formula + adduct): [C42H83O8P-CH3] 1-) is reported as 286.6 Å².

In the case of CCCCCCCCCCCCCCCCCC(=O)OC[C@H](COP(=O)(O)O)OC(=O)CCCCCCCCCCCCCCC [PA 18:0@_16:0], the “TIMS collisional cross section” value (sample type: Mouse Liver, ion (formula + adduct): [C37H73O8P+Cl] 1-) is reported as 267.2 Å².

For CCCCCCCCCCCCCCCCCC(=O)OCC(COP(=O)(O)O)OC(=O)CCCCCCCCCCCCCCCCC (stereo not drawn) [PA 18:0_18:0], the “TIMS collisional cross section” value (sample type: Mouse Liver, ion (formula + adduct): [C39H77O8P+Cl] 1-) was 273.4 Å².

With CCCCCCCCCCCCCCCCCC(=O)O[C@H](COC(=O)CCC)COP(=O)([O-])OCC[N+](C)(C)C [PC 4:0@_18:0] the “TIMS collisional cross section” value (sample type: Mouse Liver, ion (formula + adduct): [C30H60NO8P+HCOO] 1-) was 248.5 Å².

In the case of CCCCCCCCCCCCCCCCCCCC(=O)O[C@H](COC(=O)CCCCCCC)COP(=O)([O-])OCC[N+](C)(C)C [PC 8:0_20:0@], the “TIMS collisional cross section” value (sample type: Mouse Liver, ion (formula + adduct): [C36H72NO8P+HCOO] 1-) is reported as 277.6 Å².

For CCCCCC/C=C\CCCCCCCC(=O)O[C@H](COC(=O)CCCCCCCCCCC)COP(=O)([O-])OCC[N+](C)(C)C [PC 12:0@_16:1], the “TIMS collisional cross section” value (sample type: Human plasma, ion (formula + adduct): [C36H70NO8P+HCOO] 1-) was 275.3 Å².

In the case of CCCCCCCCCCCCCC(=O)O[C@H](COC(=O)CCCCCCCCCCC)COP(=O)([O-])OCC[N+](C)(C)C [PC 12:0_14:0], the “TIMS collisional cross section” value (sample type: Human plasma, ion (formula + adduct): [C34H68NO8P+HCOO] 1-) is reported as 270.8 Å².

With CCCCC/C=C\C/C=C\CCCCCCCC(=O)O[C@H](COC(=O)CCCCCCCCCCCC)COP(=O)([O-])OCC[N+](C)(C)C [PC 13:0@_18:2] the “TIMS collisional cross section” value (sample type: Mouse Liver, ion (formula + adduct): [C39H74NO8P-H] 1-) was 266.3 Å².

For CCCCC/C=C\C/C=C\C/C=C\C/C=C\CCCC(=O)O[C@H](COC(=O)CCCCCCCCCCCC)COP(=O)([O-])OCC[N+](C)(C)C [PC 13:0@_20:4], the “TIMS collisional cross section” value [1] was 289.2 Å², the “TIMS collisional cross section” value (sample type: Mouse Liver, ion (formula + adduct): [C41H74NO8P-CH3] 1-) was 267.1 Å² and the “TIMS collisional cross section” value (sample type: Mouse Liver, ion (formula + adduct): [C41H74NO8P-H] 1-) was 272.3 Å².

With CCCCCC/C=C\CCCCCCCC(=O)O[C@H](COC(=O)CCCCCCCCCCCCC)COP(=O)([O-])OCC[N+](C)(C)C [PC 14:0@_16:1] the “TIMS collisional cross section” value (sample type: Mouse Liver, ion (formula + adduct): [C38H74NO8P+HCOO] 1-) was 280.9 Å².

For CCCCCCC/C=C\CCCCCCCC(=O)O[C@H](COC(=O)CCCCCCCCCCCCC)COP(=O)([O-])OCC[N+](C)(C)C [PC 14:0@_17:1], the “TIMS collisional cross section” value (sample type: Mouse Liver, ion (formula + adduct): [C39H76NO8P-CH3] 1-) was 265 Å².

In the case of CCCCCC/C=C\CCCCCCCCCC(=O)O[C@H](COC(=O)CCCCCCCCCCCCC)COP(=O)([O-])OCC[N+](C)(C)C [PC 14:0@_18:1], the “TIMS collisional cross section” value (sample type: Human plasma, ion (formula + adduct): [C40H78NO8P+HCOO] 1-) is reported as 286 Å².

In the case of CC/C=C\C/C=C\C/C=C\CCCCCCCC(=O)O[C@H](COC(=O)CCCCCCCCCCCCC)COP(=O)([O-])OCC[N+](C)(C)C [PC 14:0@_18:3], the “TIMS collisional cross section” value (sample type: Human plasma, ion (formula + adduct): [C40H74NO8P+HCOO] 1-) is reported as 284.9 Å².

In the case of CC/C=C\C/C=C\C/C=C\C/C=C\CCCCC(=O)O[C@H](COC(=O)CCCCCCCCCCCCC)COP(=O)([O-])OCC[N+](C)(C)C [PC 14:0@_18:4], the “TIMS collisional cross section” value (sample type: Human plasma, ion (formula + adduct): [C40H72NO8P+HCOO] 1-) is reported as 277.9 Å².

In the case of CCCCC/C=C\C/C=C\C/C=C\C/C=C\CCCC(=O)O[C@H](COC(=O)CCCCCCCCCCCCC)COP(=O)([O-])OCC[N+](C)(C)C [PC 14:0@_20:4], the “TIMS collisional cross section” value (sample type: Mouse Liver, ion (formula + adduct): [C42H76NO8P-H] 1-) is reported as 272.8 Å².

In the case of CC/C=C\C/C=C\C/C=C\C/C=C\C/C=C\C/C=C\CCC(=O)O[C@H](COC(=O)CCCCCCCCCCCCC)COP(=O)([O-])OCC[N+](C)(C)C [PC 14:0@_22:6], the “TIMS collisional cross section” value (sample type: Mouse Liver, ion (formula + adduct): [C44H76NO8P-H] 1-) is reported as 277.87 ± 0.55 Å².
